PubChem BioAssay AID1259407 (Chemical Carcinogenesis Research Information System (CCRIS), 2018)
The source made the active and inactive calls. No rule for the calls is given here.

Tested on: CCRIS mutagenicity, Ames/micronucleus/aberration tests
Assay: CCRIS mutagenicity studies
[1] = Test System: AMES SALMONELLA TYPHIMURIUM, Strain/Indicator: TA98, Metabolic Activation: NONE, Method: STANDARD PLATE
[2] = Test System: AMES SALMONELLA TYPHIMURIUM, Strain/Indicator: TA98, Metabolic Activation: RAT, LIVER, S-9, AROCLOR 1254, Method: STANDARD PLATE
[3] = Test System: AMES SALMONELLA TYPHIMURIUM, Strain/Indicator: TA100, Metabolic Activation: RAT, LIVER, S-9, AROCLOR 1254, Method: STANDARD PLATE
[4] = Test System: AMES SALMONELLA TYPHIMURIUM, Strain/Indicator: TA98, Metabolic Activation: NONE, Method: PREINCUBATION
[5] = Test System: AMES SALMONELLA TYPHIMURIUM, Strain/Indicator: TA100, Metabolic Activation: NONE, Method: PREINCUBATION

In the case of CC(=O)OCC(=O)[C@@]1(OC(C)=O)CC[C@H]2[C@@H]3C[C@@H](F)C4=CC(=O)C(Br)=C[C@]4(C)[C@@]3(F)[C@@H](O)C[C@@]21C, the mutagenic call (Test System: AMES SALMONELLA TYPHIMURIUM, Strain/Indicator: TA98, Metabolic Activation: NONE) is reported as “inactive; negative”, the mutagenic call (Test System: AMES SALMONELLA TYPHIMURIUM, Strain/Indicator: TA98, Metabolic Activation: S-9) is reported as “inactive; negative” and the mutagenic call (Test System: AMES SALMONELLA TYPHIMURIUM, Strain/Indicator: TA100, Metabolic Activation: NONE) is reported as “inactive; negative”. The mutagenic call (Test System: AMES SALMONELLA TYPHIMURIUM, Strain/Indicator: TA100, Metabolic Activation: S-9) was “inactive; negative”, the mutagenic call (Test System: AMES SALMONELLA TYPHIMURIUM, Strain/Indicator: TA1535, Metabolic Activation: NONE) was “inactive; negative” and the mutagenic call (Test System: AMES SALMONELLA TYPHIMURIUM, Strain/Indicator: TA1535, Metabolic Activation: S-9) was “inactive; negative”. The mutagenic call (Test System: AMES SALMONELLA TYPHIMURIUM, Strain/Indicator: TA1537, Metabolic Activation: NONE) was “inactive; negative”, the mutagenic call (Test System: AMES SALMONELLA TYPHIMURIUM, Strain/Indicator: TA1537, Metabolic Activation: S-9) was “inactive; negative” and the mutagenic call (Test System: AMES SALMONELLA TYPHIMURIUM, Strain/Indicator: TA1538, Metabolic Activation: NONE) was “inactive; negative”. The mutagenic call (Test System: E. COLI, Strain/Indicator: WP2, Metabolic Activation: NONE) was “inactive; negative”, the mutagenic call (Test System: E. COLI, Strain/Indicator: WP2, Metabolic Activation: S-9) was “inactive; negative” and the mutagenic call (Test System: E. COLI, Strain/Indicator: WP2 UVRA, Metabolic Activation: NONE) was “inactive; negative”. For the same molecule, the mutagenic call (Test System: E. COLI, Strain/Indicator: WP2 UVRA, Metabolic Activation: S-9) was “inactive; negative”.

In the case of O=[N+]([O-])c1ccc2ccc3c4c(cc5ccc1c2c53)[C@@H](O)[C@H](O)[C@@H]1O[C@H]41, the mutagenic call (Test System: CHINESE HAMSTER OVARY, Strain/Indicator: CHO-K1-BH4 (HGPRT)/6-THIOGUANINE, Metabolic Activation: NONE) is reported as “active; positive”.

With COc1ccccc1NCSC the mutagenic call (Test System: AMES SALMONELLA TYPHIMURIUM, Strain/Indicator: TA98, Metabolic Activation: NONE, Method: SPOT TEST) was “inactive; negative”, the mutagenic call (Test System: AMES SALMONELLA TYPHIMURIUM, Strain/Indicator: TA98, Metabolic Activation: RAT, LIVER, S-9, AROCLOR 1254, Method: SPOT TEST) was “active; positive” and the mutagenic call (Test System: AMES SALMONELLA TYPHIMURIUM, Strain/Indicator: TA100, Metabolic Activation: NONE, Method: SPOT TEST) was “active; positive”. For the same molecule, the mutagenic call (Test System: AMES SALMONELLA TYPHIMURIUM, Strain/Indicator: TA100, Metabolic Activation: RAT, LIVER, S-9, AROCLOR 1254, Method: SPOT TEST) was “active; positive”, the mutagenic call (Test System: AMES SALMONELLA TYPHIMURIUM, Strain/Indicator: TA102, Metabolic Activation: NONE, Method: SPOT TEST) was “inactive; negative” and the mutagenic call (Test System: AMES SALMONELLA TYPHIMURIUM, Strain/Indicator: TA102, Metabolic Activation: RAT, LIVER, S-9, AROCLOR 1254, Method: SPOT TEST) was “active; positive”.

With CCNc1nc(NC(C)C)[nH]c(=O)n1 the mutagenic call (Test System: AMES SALMONELLA TYPHIMURIUM, Strain/Indicator: TA97, Metabolic Activation: NONE, Method: STANDARD PLATE) was “inactive; negative”, the mutagenic call [1] was “inactive; negative” and the mutagenic call (Test System: AMES SALMONELLA TYPHIMURIUM, Strain/Indicator: TA100, Metabolic Activation: NONE, Method: STANDARD PLATE) was “inactive; negative”.

C=Cc1c(C)c2[n-]c1=CC1=NC(=CC3=C(C)C(=C([O-])[O-])C(=N3)C(CC(=O)[O-])=C3N=C(C=2)C(C)C3CCC(=O)[O-])C(CC)=C1C.[Cu+2].[Na+].[Na+].[Na+] (stereo unspecified) was tested, and the mutagenic call (Test System: AMES SALMONELLA TYPHIMURIUM, Strain/Indicator: TA97, Metabolic Activation: NONE, Method: PREINCUBATION) was “inactive; negative”, the mutagenic call (Test System: AMES SALMONELLA TYPHIMURIUM, Strain/Indicator: TA97, Metabolic Activation: S-9, Method: PREINCUBATION) was “inactive; negative” and the mutagenic call (Test System: AMES SALMONELLA TYPHIMURIUM, Strain/Indicator: TA102, Metabolic Activation: NONE, Method: PREINCUBATION) was “inactive; negative”. For the same molecule, the mutagenic call (Test System: AMES SALMONELLA TYPHIMURIUM, Strain/Indicator: TA102, Metabolic Activation: S-9, Method: PREINCUBATION) was “inactive; negative” and the mutagenic call (Test System: CHINESE HAMSTER OVARY, Strain/Indicator: CHO-K1 (HGPRT)/6-THIOGUANINE) was “inactive; negative”.

With Clc1cc2c3ccccc3ccc2c2ccccc12 the mutagenic call [2] was “inactive; negative” and the mutagenic call [3] was “active; positive”.

C1CCCNCC1 was tested, and the mutagenic call [4] was “inactive; negative”, the mutagenic call (Test System: AMES SALMONELLA TYPHIMURIUM, Strain/Indicator: TA98, Metabolic Activation: RAT LIVER S-9, PHENOBARBITAL AND BETA-NAPHTHOFLAVONE, Method: PREINCUBATION) was “inactive; negative” and the mutagenic call [5] was “inactive; negative”. The mutagenic call (Test System: AMES SALMONELLA TYPHIMURIUM, Strain/Indicator: TA100, Metabolic Activation: RAT LIVER S-9, PHENOBARBITAL AND BETA-NAPHTHOFLAVONE, Method: PREINCUBATION) was “inactive; negative”, the mutagenic call (Test System: AMES SALMONELLA TYPHIMURIUM, Strain/Indicator: TA1535, Metabolic Activation: NONE, Method: PREINCUBATION) was “inactive; negative” and the mutagenic call (Test System: AMES SALMONELLA TYPHIMURIUM, Strain/Indicator: TA1535, Metabolic Activation: RAT LIVER S-9, PHENOBARBITAL AND BETA-NAPHTHOFLAVONE, Method: PREINCUBATION) was “inactive; negative”. For the same molecule, the mutagenic call (Test System: AMES SALMONELLA TYPHIMURIUM, Strain/Indicator: TA1537, Metabolic Activation: NONE, Method: PREINCUBATION) was “inactive; negative”, the mutagenic call (Test System: AMES SALMONELLA TYPHIMURIUM, Strain/Indicator: TA1537, Metabolic Activation: RAT LIVER S-9, PHENOBARBITAL AND BETA-NAPHTHOFLAVONE, Method: PREINCUBATION) was “inactive; negative” and the mutagenic call (Test System: E.COLI, Strain/Indicator: WP2UVRA, Metabolic Activation: NONE, Method: PREINCUBATION) was “inactive; negative”. The mutagenic call (Test System: E.COLI, Strain/Indicator: WP2UVRA, Metabolic Activation: RAT LIVER S-9, PHENOBARBITAL AND BETA-NAPHTHOFLAVONE, Method: PREINCUBATION) was “inactive; negative”.

In the case of CC(=O)N(O[C@@H]1O[C@H](CO)[C@@H](O)[C@H](O)[C@H]1O)c1ccc(Oc2ccc(Cl)cc2)cc1, the mutagenic call (Test System: AMES SALMONELLA TYPHIMURIUM, Strain/Indicator: TA100, Metabolic Activation: GUINEA PIG, LIVER, MICROSOMAL FRACTION, PCB) is reported as “active; positive”, the mutagenic call (Test System: AMES SALMONELLA TYPHIMURIUM, Strain/Indicator: TA100, Metabolic Activation: GUINEA PIG, LIVER, S-9, PCB) is reported as “active; positive” and the mutagenic call (Test System: AMES SALMONELLA TYPHIMURIUM, Strain/Indicator: TA100, Metabolic Activation: GUINEA PIG, LIVER, S-105, PCB) is reported as “inactive; negative”.

In the case of Nc1ccc(Sc2ccc([N+](=O)[O-])cc2)cc1, the mutagenic call [1] is reported as “active; positive” and the mutagenic call [2] is reported as “active; positive”.

For ClC(Cl)(Cl)c1nc(-c2ccc3c(c2)OCO3)nc(C(Cl)(Cl)Cl)n1, the mutagenic call (End Point: In vitro chromosomal aberrations, Test System: Chinese hamster lung (CHL/IU) cells, Metabolic Activation: Rat, Liver, S-9, Phenobarbital and 5,6-benzoflavone) was “active; positive (structural changes and ploidy). ploidy response weak and not dose rela”, the mutagenic call (Test System: Ames Salmonella typhimurium, Strain/Indicator: TA98, Metabolic Activation: None, Method: Preincubation) was “inactive; negative” and the mutagenic call (Test System: Ames Salmonella typhimurium, Strain/Indicator: TA98, Metabolic Activation: Rat, Liver, S-9, Phenobarbital and 5,6-benzoflavone, Method: Preincubation) was “inactive; negative”. For the same molecule, the mutagenic call (Test System: Ames Salmonella typhimurium, Strain/Indicator: TA100, Metabolic Activation: None, Method: Preincubation) was “active; positive”, the mutagenic call (Test System: Ames Salmonella typhimurium, Strain/Indicator: TA100, Metabolic Activation: Rat, Liver, S-9, Phenobarbital and 5,6-benzoflavone, Method: Preincubation) was “active; positive” and the mutagenic call (Test System: Ames Salmonella typhimurium, Strain/Indicator: TA1535, Metabolic Activation: None, Method: Preincubation) was “inactive; negative”. For the same molecule, the mutagenic call (Test System: Ames Salmonella typhimurium, Strain/Indicator: TA1535, Metabolic Activation: Rat, Liver, S-9, Phenobarbital and 5,6-benzoflavone, Method: Preincubation) was “active; positive”, the mutagenic call (Test System: Ames Salmonella typhimurium, Strain/Indicator: TA1537, Metabolic Activation: None, Method: Preincubation) was “inactive; negative” and the mutagenic call (Test System: Ames Salmonella typhimurium, Strain/Indicator: TA1537, Metabolic Activation: Rat, Liver, S-9, Phenobarbital and 5,6-benzoflavone, Method: Preincubation) was “inactive; negative”. For the same molecule, the mutagenic call (Test System: E. coli, Strain/Indicator: WP2uvrA/pKM101, Metabolic Activation: None, Method: Preincubation) was “inactive; negative” and the mutagenic call (Test System: E. coli, Strain/Indicator: WP2uvrA/pKM101, Metabolic Activation: Rat, Liver, S-9, Phenobarbital and 5,6-benzoflavone, Method: Preincubation) was “inactive; negative”.

With O=[N+]([O-])c1ccc(S(=O)(=O)O)cc1 the mutagenic call [4] was “inactive; negative”, the mutagenic call (Test System: AMES SALMONELLA TYPHIMURIUM, Strain/Indicator: TA98, Metabolic Activation: RAT, LIVER, S-9, KANECHLOR 500, Method: PREINCUBATION) was “inactive; negative” and the mutagenic call [5] was “inactive; negative”. The mutagenic call (Test System: AMES SALMONELLA TYPHIMURIUM, Strain/Indicator: TA100, Metabolic Activation: RAT, LIVER, S-9, KANECHLOR 500, Method: PREINCUBATION) was “inactive; negative”.

With C=CCn1cc2c3c(cccc31)[C@H]1C=C(CO)CN(C)[C@@H]1C2 the mutagenic call [3] was “active; positive”.
